Assay results: patent US9439904B2, “Pyrimidine compounds and their use as gamma secretase modulators” (Acturum Life Science AB, priority 2013, dated 2016)

What was measured:
[1] = tested on: Aβ42; assay: PCN assay: Aβ42 secreted by primary cortical neuronal cells, ELISA; format: cell-based; details: primary cortical neuronal cells from 16-day mouse embryos; 16-20 hours incubation with test compound; read-out: pIC50 Aβ42 PCN assay (converted)
Experimental: Compounds were diluted in 100% DMSO and stored at […] prior to use. Primary cortical neuronal cells (PCN) were isolated from 16-day mouse embryos and cultured in Ham's F12 media containing 10% Foetal bovine serum, 10 mM Hepes, 2 mM L-glutamine and 100 U/mL Penicillin-Streptomycin. 150000-250000 cells/well, in 200 μL cell media were seeded onto 96-well poly-D-Lysine coated plates. After incubation at 37° C., 5% CO2 for five days, the media was exchanged for fresh medium containing test compound diluted ×100, before further incubation for 16-20 hours at 37° C. and 5% CO2. After incubation with test compound the amount of […] secreted to cell medium was analyzed using the solid phase sandwich Enzyme-Linked-Immuno-Sorbent Assay (ELISA)-kit from Invitrogen for detection of mouse βAmyloid 1-42. Potential cytotoxic effects of the compounds were assayed by measuring the ATP content (Via Light) from cell lysate.

[2] = tested on: Aβ42; assay: HEK assay: Aβ42 secreted to cell medium, Meso Scale Discovery electrochemiluminescence; format: cell-based; details: Homo sapiens, HEK293; HEK cell line stably expressing APPswe; 4-6 hours incubation with test compound; read-out: pIC50 Aβ42 HEK assay (converted)
Experimental: Compounds were diluted in 100% DMSO and stored at […] prior to use. Human Embryonic Kidney (HEK) cell line stably expressing APP with the Swedish mutation (APPswe) was cultured using Dulbecco's Modified Eagles medium (DMEM) supplied with […] glucose, Na-pyruvate and GlutaMAX, 10% Foetal bovine serum, 100 U/mL penicillin-streptomycin (PEST), 1× non-essential amino acids (NEAA), […] Hepes, 100 μg/mL Zeocine. Cells at about 80% confluence were washed with PBS, detached from culture flasks using 1× Trypsin/EDTA diluted in PBS, re-suspended in cell media and plated in 384-well poly-d-lysine coated cell culture plates at about 10000-15000 cells/well, in 25 μL cell media. Optionally, cryo-preserved cells (frozen and stored at −140° C. in 90% cell media and 10% DMSO) were thawed, washed and plated as above. Next the cells were incubated for 15-24 h at 37° C. and 5% CO2, after which cell medium was changed. Fresh medium containing test compound diluted ×200 from prepared compound plate was added to the cells before further incubation for 4-6 hours at 37° C. and 5% CO2. After incubation with test compound the amount of Aβ peptides, including Aβ42, Aβ40, Aβ39, Aβ38 and Aβ37, secreted to cell medium was analyzed using the electrochemiluminescence assay technology from Meso Scale Discovery Technology, in combination with specific antibodies raised against the different Aβ peptides. Potential cytotoxic effects of the compounds were assayed by measuring the ATP content (ViaLight) from cell lysate.

IC50 [2] | SMILES | IC50 [1]
50.1 nM | COc1cc(Nc2nc(COCC(F)(F)F)cc(NC3CC3)n2)ccc1-n1cnc(C)c1 [Example 34, N^4-Cyclopropyl-N^2-(3-methoxy-4-(4-methyl-1H-imidazol-1-yl)phenyl)-6-((2,2,2-trifluoroethoxy)methyl)pyrimidine-2,4-diamine] | 100 nM
100 nM | COc1cn(-c2ccc(Nc3nc(COCC(F)(F)F)cc(C(C)(C)O)n3)cc2OC)cn1 [Example 32, 2-(2-(3-Methoxy-4-(4-methoxy-1H-imidazol-1-yl)phenylamino)-6-((2,2,2-trifluoroethoxy)-methyl)pyrimidin-4-yl)propan-2-ol] | 316 nM
50.1 nM | COc1cc(Nc2nc(COCC(F)(F)F)cc(C(C)O)n2)ccc1-n1cnc(C)c1 (stereo not drawn) [Example 44, 1-(2-(3-Methoxy-4-(4-methyl-1H-imidazol-1-yl)phenylamino)-6-((2,2,2-trifluoroethoxy)-methyl)pyrimidin-4-yl)ethanol] | 100 nM
50.1 nM | COc1cc(Nc2nc(COCC(F)(F)F)cc(NCCC#N)n2)ccc1-n1cnc(C)c1 [Example 38, 3-(2-(3-Methoxy-4-(4-methyl-1H-imidazol-1-yl)phenylamino)-6-((2,2,2-trifluoroethoxy)-methyl)pyrimidin-4-ylamino)propanenitrile] | 39.8 nM
79.4 nM | COc1cc(Nc2nc(COCC(F)(F)F)cc(CN3CC(F)C3)n2)ccc1-c1cnnc(C)c1 [Example 42, 4-((3-Fluoroazetidin-1-yl)methyl)-N-(3-methoxy-4-(6-methylpyridazin-4-yl)phenyl)-6-((2,2,2-trifluoroethoxy)methyl)pyrimidin-2-amine] | 251 nM

Further lines, the compound ahead of its results:

SMILES | IC50 [2] | IC50 [1]
COc1cc(Nc2nc(COCC(F)(F)F)cc(N3CCC3)n2)ccc1-c1cnnc(C)c1 [Example 21, 4-(Azetidin-1-yl)-N-(3-methoxy-4-(6-methylpyridazin-4-yl)phenyl)-6-((2,2,2-trifluoroethoxy)methyl)pyrimidin-2-amine] | 126 nM | 50.1 nM
CNc1cc(COCC2CC2)nc(Nc2ccc(-n3cnc(C)c3)c(OC)c2)n1 [Example 30, 6-((Cyclopropylmethoxy)methyl)-N2-(3-methoxy-4-(4-methyl-1H-imidazol-1-yl)phenyl)-N4-methylpyrimidine-2,4-diamine] | 39.8 nM | 63.1 nM
COc1cc(Nc2nc(COCC(F)(F)F)cc(N3CCC3)n2)ccc1-n1cnc(C)c1 [Example 20, 4-(Azetidin-1-yl)-N-(3-methoxy-4-(4-methyl-1H-imidazol-1-yl)phenyl)-6-((2,2,2-trifluoroethoxy)methyl)pyrimidin-2-amine] | 39.8 nM | 100 nM
COc1cc(Nc2nc(COCC(F)(F)F)cc(N3CCC(F)(F)CC3)n2)ccc1-n1cnc(C)c1 [Example 26, 4-(4,4-Difluoropiperidin-1-yl)-N-(3-methoxy-4-(4-methyl-1H-imidazol-1-yl)phenyl)-6-((2,2,2-trifluoroethoxy)methyl)pyrimidin-2-amine] | 50.1 nM | 20 nM
COc1cc(Nc2nc(COCC3CC3)cc(N3CCC3)n2)ccc1-n1cnc(C)c1 [Example 1, 4-(Azetidin-1-yl)-6-((cyclopropylmethoxy)methyl)-N-(3-methoxy-4-(4-methyl-1H-imidazol-1-yl)phenyl)pyrimidin-2-amine] | 20 nM | 50.1 nM
COc1cc(Nc2nc(COCC(F)(F)F)cc(NC(C)C)n2)ccc1-c1cnnc(C)c1 [Example 23, N^4-Isopropyl-N^2-(3-methoxy-4-(6-methylpyridazin-4-yl)phenyl)-6-((2,2,2-trifluoroethoxy)-methyl)pyrimidine-2,4-diamine] | 79.4 nM | 79.4 nM
COc1cc(Nc2nc(CC#N)cc(COCC(F)(F)F)n2)ccc1-n1cnc(C)c1 [Example 3, 2-[2-[3-Methoxy-4-(4-methylimidazol-1-yl)anilino]-6-(2,2,2-trifluoroethoxymethyl)pyrimidin-4-yl]acetonitrile] | 25.1 nM | 39.8 nM
